# According to US20240408169A1 (priority 2023, published 2024):
# *1 amine or outer side, *2 acyl side, *3 side chain or, on linkers, in order; H or OH if unused. Where a SMILES comes first, the peptide text is derived from it. Bridges are numbered along the chain shown (N, C = ends). [ ]: non-standard residue; d: D form. The star is where a group is joined. X47 = C[C@@H]1CN(c2ccc(-c3ccc(Cl)cc3C[C@@H](C(=O)[*:2])N(C)[*:1])cc2)C[C@H](C)N1C; X74 = C[C@@H]1CN(c2ccc(-c3ccc(Cl)cc3C[C@@H](C(=O)[*:2])N(C)[*:1])cc2)C[C@@H](C)O1; NMePhe(2-(4-MorPh),5-Cl) = CN[C@@H](Cc1cc(Cl)ccc1-c1ccc(N2CCOCC2)cc1)C(=O)O; X92 = CN1CCN(C(=O)c2ccc(-c3ccc(Cl)cc3C[C@@H](C(=O)[*:2])N(C)[*:1])cc2)CC1; X23 = CCN([C@@H](Cc1cc(Cl)ccc1-c1ccc(N2CCN(C)CC2)cc1)C(=O)[*:2])[*:1]; X59 = CC(c1ccc(-c2ccc(Cl)cc2C[C@@H](C(=O)[*:2])N(C)[*:1])cc1)N1CCOCC1; X37 = CN1CCN(c2ccc(-c3ccc(F)cc3C[C@@H](C(=O)[*:2])N(C)[*:1])cn2)CC1; X49 = CN1CCc2ccc(-c3ccc(Cl)cc3C[C@@H](C(=O)[*:2])N(C)[*:1])cc2C1; NMehhhLys(Me) = CN([C@@H](CCCCCCCN(C)[*:3])C(=O)[*:2])[*:1]; X96 = CN([C@@H](Cc1cc(Cl)cc2ccn(C)c12)C(=O)[*:2])[*:1]; X41 = CN([C@@H](Cc1cc(Cl)cc2c1ccn2C)C(=O)[*:2])[*:1]; cBuCO(3,3-F2-1-CF3) = O=C(C1(C(F)(F)F)CC(F)(F)C1)*; Pro(trans-4-F) = O=C(O)[C@@H]1C[C@@H](F)CN1; Gly(cPr) = N[C@H](C(=O)O)C1CC1; X102 = C[C@]1(C(=O)*)CC1(F)F; X9 = C[C@@]1(C(=O)*)CC1(F)F; X20 = O=C(C1(Cl)CC1)*
# How the values were obtained:
# NCI-H1048 cells = assay: MTT proliferation assay, NCI-H1048; type: cell-based; settings: 5 days compound exposure, 1:3 serial dilution starting at 10 μM;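 also: Dose-response in 96-well plates over 8 or 10 concentration points, with exposure spanning 3-4 cell doublings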
# CyclinE1/CDK2 = target: T1, CyclinE1/CDK2 (Homo sapiens, UniProt P24864); assay: Fluorescence Polarization (FP) competitive binding assay, Cyclin E1/Cdk2; settings: 10 nM Cyclin E1/Cdk2, 2 nM FAM probe; average of 2-3 independent experiments; read-out: Cyclin E FP IC50;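 also: readings taken after two-hour equilibration at room temperature in HEPES buffer with NaCl, DTT, NP-40 and BSA, IC50 fitted from eight-concentration serial dilution series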
# T1 construct: purchased Eurofins, discovery 14-475
# WI-38 cells = assay: MTT proliferation assay, WI-38; type: cell-based; settings: 3 days compound exposure, 1:3 serial dilution starting at 10 μM;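 also: Eight- or ten-point dilution series, with exposure length chosen to span about three to four cell doublings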
# OVCAR3 cells = assay: MTT proliferation assay, OVCAR3; type: cell-based; settings: 5 days compound exposure, 1:3 serial dilution starting at 10 μM;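 also: compound given as an 8- or 10-point series, one day after plating, with exposure covering roughly 3-4 cell doublings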
# CyclinA2/CDK2 = target: T2, CyclinA2/CDK2 (Homo sapiens, UniProt P20248); assay: Fluorescence Polarization (FP) competitive binding assay, Cyclin A2/Cdk2; settings: 8 nM Cyclin A2/Cdk2, 2 nM FAM probe; average of 2-3 independent experiments; read-out: Cyclin A FP IC50;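 also: plates equilibrated two hours at room temperature before polarization reading, IC50 fitted from eight-concentration compound titration curves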
# T2 construct: purchased CRELUX Protein Services
# CyclinB1/CDK1 = target: T3, CyclinB1/CDK1 (Homo sapiens, UniProt P14635); assay: Fluorescence Polarization (FP) competitive binding assay, Cyclin B1/Cdk1; settings: 10 nM Cyclin B1/Cdk1, 2 nM FAM probe; average of 2-3 independent experiments; read-out: Cyclin B FP IC50;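 also: fluorescence polarization read after equilibration at room temperature, with IC50 taken from serially diluted dose-response curves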
# T3 construct: purchased Eurofins, discovery 14-450
SMILES,GI50 (NCI-H1048 cells),IC50 (CyclinE1/CDK2),GI50 (WI-38 cells),GI50 (OVCAR3 cells),IC50 (CyclinA2/CDK2),IC50 (CyclinB1/CDK1)
"CC(C)C[C@@H]1NC(=O)[C@@H](N(C)C(=O)[C@@H](NC(=O)[C@@H]2C[C@@H](F)CN2C(=O)C2(C(F)(F)F)CC(F)(F)C2)C2CC2)CCCCCCCN(C)C(=O)[C@H](Cc2cc(Cl)ccc2-c2ccc(N3C[C@@H](C)N(C)[C@@H](C)C3)cc2)N(C)C1=O [Example 384] ({cBuCO(3,3-F2-1-CF3)}-[Pro(trans-4-F)][Gly(cPr)][NMehhhLys(Me)]L[X47]; lactam 3-C)",0.01 µM,0.59 µM,2.21 µM,0.01 µM,0.02 µM,0.02 µM
CCN(C(=O)[C@@H](NC(=O)[C@@H]1C[C@@H](F)CN1C(=O)C1(C(F)(F)F)CC(F)(F)C1)C1CC1)[C@H]1CCCCCCCN(C)C(=O)[C@H](Cc2cc(Cl)ccc2-c2ccc(N3CCN(C)CC3)cc2)N(C)C(=O)[C@H](CC(C)C)NC1=O [Example 388],0.02 µM,3.93 µM,3.5 µM,0.02 µM,0.02 µM,0.02 µM
"CC(C)C[C@@H]1NC(=O)[C@@H](N(C)C(=O)[C@@H](NC(=O)[C@@H]2C[C@@H](F)CN2C(=O)C2(C(F)(F)F)CC(F)(F)C2)C2CC2)CCCCCCCN(C)C(=O)[C@H](Cc2cc(Cl)ccc2-c2ccc(N3C[C@@H](C)O[C@H](C)C3)cc2)N(C)C1=O [Example 389] ({cBuCO(3,3-F2-1-CF3)}-[Pro(trans-4-F)][Gly(cPr)][NMehhhLys(Me)]L[X74]; lactam 3-C)",0.02 µM,0.79 µM,17.6 µM,0.01 µM,0.02 µM,0.02 µM
"CC(C)C[C@@H]1NC(=O)[C@@H](N(C)C(=O)[C@@H](NC(=O)[C@@H]2C[C@@H](F)CN2C(=O)C2(C(F)(F)F)CC(F)(F)C2)C2CC2)CCCCCCCN(C)C(=O)[C@H](Cc2cc(Cl)ccc2-c2ccc(C(=O)N3CCN(C)CC3)cc2)N(C)C1=O [Example 390] ({cBuCO(3,3-F2-1-CF3)}-[Pro(trans-4-F)][Gly(cPr)][NMehhhLys(Me)]L[X92]; lactam 3-C)",0.03 µM,0.87 µM,9.24 µM,0.02 µM,0.02 µM,0.02 µM
"CC(C)C[C@@H]1NC(=O)[C@@H](N(C)C(=O)[C@@H](NC(=O)[C@@H]2C[C@@H](F)CN2C(=O)C2(C(F)(F)F)CC(F)(F)C2)C2CC2)CCCCCCCN(C)C(=O)[C@H](Cc2cc(F)ccc2-c2ccc(N3CCN(C)CC3)nc2)N(C)C1=O [Example 391] ({cBuCO(3,3-F2-1-CF3)}-[Pro(trans-4-F)][Gly(cPr)][NMehhhLys(Me)]L[X37]; lactam 3-C)",0.01 µM,0.61 µM,7.82 µM,0.01 µM,0.03 µM,0.02 µM
"CC(C)C[C@@H]1NC(=O)[C@@H](N(C)C(=O)[C@@H](NC(=O)[C@@H]2C[C@@H](F)CN2C(=O)C2(C(F)(F)F)CC(F)(F)C2)C2CC2)CCCCCCCN(C)C(=O)[C@H](Cc2cc(Cl)cc3ccn(C)c23)N(C)C1=O [Example 392, (2S,4R)—N—((S)-2-(((3S,6S,9S)-3-((5-chloro-1-methyl-1H-indol-7-yl)methyl)-6-isobutyl-1,4-dimethyl-2,5,8-trioxo-1,4,7-triazacyclohexadecan-9-yl)(methyl)amino)-1-cyclopropyl-2-oxoethyl)-1-(3,3-difluoro-1-(trifluoromethyl)cyclobutane-1-carbonyl)-4-fluoropyrrolidine-2-carboxamide] ({cBuCO(3,3-F2-1-CF3)}-[Pro(trans-4-F)][Gly(cPr)][NMehhhLys(Me)]L[X96]; lactam 3-C)",0.17 µM,0.83 µM,14.7 µM,0.17 µM,0.23 µM,0.02 µM
"CC(C)C[C@@H]1NC(=O)[C@@H](N(C)C(=O)[C@@H](NC(=O)[C@@H]2C[C@@H](F)CN2C(=O)C2(C(F)(F)F)CC(F)(F)C2)C2CC2)CCCCCCCN(C)C(=O)[C@H](Cc2cc(Cl)cc3c2ccn3C)N(C)C1=O [Example 393] ({cBuCO(3,3-F2-1-CF3)}-[Pro(trans-4-F)][Gly(cPr)][NMehhhLys(Me)]L[X41]; lactam 3-C)",1.79 µM,1.69 µM,13.7 µM,1.31 µM,6.67 µM,0.047 µM
CC(C)C[C@@H]1NC(=O)C(N(C)C(=O)[C@@H](NC(=O)[C@@H]2C[C@@H](F)CN2C(=O)C2(C(F)(F)F)CC(F)(F)C2)C2CC2)C/C=C\CCCCN(C)C(=O)[C@H](Cc2cc(Cl)ccc2-c2ccc(N3CCN(C)CC3)cc2)N(C)C1=O (stereo partly drawn) [Example 397],0.01 µM,0.26 µM,3.56 µM,0.01 µM,0.02 µM,0.02 µM
"CC(C)C[C@@H]1NC(=O)[C@@H](N(C)C(=O)[C@@H](NC(=O)[C@@H]2C[C@@H](F)CN2C(=O)C2(Cl)CC2)C2CC2)CCCCCCCN(C)C(=O)[C@H](Cc2cc(Cl)ccc2-c2ccc(N3CCOCC3)cc2)N(C)C1=O [Example 398] (X20-[Pro(trans-4-F)][Gly(cPr)][NMehhhLys(Me)]L[NMePhe(2-(4-MorPh),5-Cl)]; lactam 3-C)",0.14 µM,0.59 µM,3.64 µM,0.19 µM,0.02 µM,0.02 µM
"CC(C)C[C@@H]1NC(=O)[C@@H](N(C)C(=O)[C@@H](NC(=O)[C@@H]2C[C@@H](F)CN2C(=O)[C@]2(C)CC2(F)F)C2CC2)CCCCCCCN(C)C(=O)[C@H](Cc2cc(Cl)ccc2-c2ccc(N3CCOCC3)cc2)N(C)C1=O [Example 399] (X9-[Pro(trans-4-F)][Gly(cPr)][NMehhhLys(Me)]L[NMePhe(2-(4-MorPh),5-Cl)]; lactam 3-C)",0.22 µM,3 µM,3.65 µM,0.11 µM,0.07 µM,0.02 µM
"CC(C)C[C@@H]1NC(=O)[C@@H](N(C)C(=O)[C@@H](NC(=O)[C@@H]2C[C@@H](F)CN2C(=O)[C@@]2(C)CC2(F)F)C2CC2)CCCCCCCN(C)C(=O)[C@H](Cc2cc(Cl)ccc2-c2ccc(N3CCOCC3)cc2)N(C)C1=O [Example 400] (X102-[Pro(trans-4-F)][Gly(cPr)][NMehhhLys(Me)]L[NMePhe(2-(4-MorPh),5-Cl)]; lactam 3-C)",0.01 µM,0.49 µM,4.61 µM,0.01 µM,0.02 µM,0.02 µM
"CC(C)C[C@@H]1NC(=O)[C@@H](N(C)C(=O)[C@@H](NC(=O)[C@@H]2C[C@@H](F)CN2C(=O)C2(C(F)(F)F)CC(F)(F)C2)C2CC2)CCCCCCCN(C)C(=O)[C@H](Cc2cc(Cl)ccc2-c2ccc(C(C)N3CCOCC3)cc2)N(C)C1=O (stereo partly drawn) [Example 403] ({cBuCO(3,3-F2-1-CF3)}-[Pro(trans-4-F)][Gly(cPr)][NMehhhLys(Me)]L[X59]; lactam 3-C)",0.01 µM,0.67 µM,3.99 µM,0.01 µM,0.02 µM,0.02 µM
"CCN1C(=O)[C@H](CC(C)C)NC(=O)[C@@H](N(C)C(=O)[C@@H](NC(=O)[C@@H]2C[C@@H](F)CN2C(=O)C2(C(F)(F)F)CC(F)(F)C2)C2CC2)CCCCCCCN(C)C(=O)[C@@H]1Cc1cc(Cl)ccc1-c1ccc(N2CCN(C)CC2)cc1 [Example 405] ({cBuCO(3,3-F2-1-CF3)}-[Pro(trans-4-F)][Gly(cPr)][NMehhhLys(Me)]L[X23]; lactam 3-C)",0.04 µM,2.56 µM,2.16 µM,0.05 µM,0.05 µM,0.02 µM
"CC(C)C[C@@H]1NC(=O)[C@@H](N(C)C(=O)[C@@H](NC(=O)[C@@H]2C[C@@H](F)CN2C(=O)C2(C(F)(F)F)CC(F)(F)C2)C2CC2)CCCCCCCN(C)C(=O)[C@H](Cc2cc(Cl)ccc2-c2ccc3c(c2)CN(C)CC3)N(C)C1=O [Example 406] ({cBuCO(3,3-F2-1-CF3)}-[Pro(trans-4-F)][Gly(cPr)][NMehhhLys(Me)]L[X49]; lactam 3-C)",0.02 µM,1.78 µM,3.35 µM,0.04 µM,0.02 µM,0.02 µM
